Article PMC10222548, “Semisynthesis, Biological Evaluation and Molecular Docking Studies of Barbatic Acid Derivatives as Novel Diuretic Candidates” (Molecules, 2023)
“And” between values parts separate entries of the source, which are not always exact repeats. Identical values can stand only once.

Assays:
MDCK cells = assay: MTT cytotoxicity assay on MDCK cells; format: cell-based, canine; settings: Canis lupus familiaris, 100 μmol/L, 24 h, mean ± SD of three replicates, read-out: Growth Inhibition Rate (%)
Description: First, we used the MTT method to perform cytotoxicity of barbatic acid derivatives (1, 6a–6p′) on MDCK cells at the concentration of 100 μmol/L, and the results are shown in Table 1.
The MTT assay was used to evaluate the cytotoxicity of the target compounds on DMCK cells. Logarithmic-growth-phase DMCK cells were seeded in a 96-well plate (10^4 cells/well) and incubated in a cell culture incubator for 24 h. The culture medium was then removed and replaced with a drug-containing medium for the treatment groups (1, 6a–6p′, 100 μmol/L), normal saline for the control group, or hydrochlorothiazide (100 μmol/L) for the positive control group. Each well was treated with 100 µL of the respective solution and incubated for an additional 24 h. The culture medium was then removed and replaced with a DMEM solution containing 20 µL of MTT (5 mg/mL). After incubating for 4 h, the liquid in each well was removed and replaced with 150 µL of DMSO, which was shaken for 10 min to ensure thorough mixing. The absorbance at 490 nm was measured to determine the optical density (OD) of each well. Cell growth inhibition rate (%) = (ODBlank − ODExperimental)/ODBlank × 100%.

[1] = test system: Na^+ transport, MDCK cells; assay: In vitro diuretic activity: Na^+ transport inhibition, Transwell chamber seeded with MDCK cells; format: cell-based, canine; settings: for inhibition at 100 µM: Canis lupus familiaris, MDCK, read-out: Transport Inhibition Rate (%) Na^+; for inhibition at 100 µM / Transport Inhibition Rate (%) Na^+: 100 μmol/L, MDCK cells in Transwell, mean ± SD of three replicates, negative = promotion
Source text: (§1) The traditional methods for screening diuretic drugs are mostly in vivo experiments with mice, which have a long experimental cycle and are not suitable for screening massive compounds. As we know, the generation and excretion of urine involve two processes: glomerular filtration and tubular reabsorption. Reabsorption refers to the process in which the renal tubular epithelial cells transport water and certain solutes from the tubular fluid (urine) partially or entirely back into the bloodstream. Then, 99% of the water in the original urine filtered by the glomerulus is reabsorbed, and the transport of Na^+ and Cl^− plays an important role in this process. Thiazide and furosemide diuretics exert their diuretic effects by inhibiting the transport of Na^+ and Cl^−, which affects the tubular reabsorption of the original urine. Based on this principle, we established a new type of cell screening model for diuretic active drugs. Madin–Darby canine kidney (MDCK) cells were inoculated into a Transwell chamber to simulate the renal tubules. This cell model could transport and absorb external NaCl, simulating the reabsorption phenomenon. […] The effectiveness of this model was confirmed by the validation of hydrochlorothiazide, which is a commercially available diuretic drug and could inhibit the transport of Na^+ and Cl^− in renal tubules.
(§2) Generally, the transport of Na^+ and Cl^− plays an important role in glomerular filtration and tubular reabsorption. […] For example, inhibition rates of transport of 6a and 6c were over 30%, and had better inhibitory ability than barbatic acid. […] When ethyl, propyl, and benzyl were substituted on R^1, the introduction of any group could not enhance the inhibitory activity of barbatic acid, such as 6h–u and 6j′–6p′.
(§3) Log-phase MDCK cells were seeded in the upper chambers of Transwell plates (4 × 10^4 cells/well), and 800 µL of complete culture medium was added to the lower chambers. After 24 h of incubation at 37 °C, the electrical resistance of the upper chamber cells was measured one by one (R = (Rcell − Rblank) × 0.04π). When the electrical resistance of the upper chamber cells reached ≥300 Ω cm^2, the upper chamber medium was removed and replaced with the drug solution. The blank group (given normal saline), the experimental group (1, 6a–6p′, 100 μmol/L), and the hydrochlorothiazide group (100 μmol/L) were set, and each well was treated with 100 µL of the corresponding solution. The cells were then further incubated for 24 h. After that, the upper and lower chamber fluids were removed, and 200 µL of NaCl solution (15 mg/mL) was added to the upper chamber, while 800 µL of DMEM was added to the lower chamber for continued incubation. At 0.5, 1, 2, and 3 h, 50 µL of the lower chamber fluid was taken and the OD values were measured using Na^+ and Cl^− detection kits. The transport inhibition rate (%) was calculated as follows: transport inhibition rate (%) = (ODblank − ODexperimental)/ODblank × 100%.

[2] = test system: Cl^− transport, MDCK cells; assay: In vitro diuretic activity: Cl^− transport inhibition, Transwell chamber seeded with MDCK cells; format: cell-based, canine; settings: Canis lupus familiaris; 100 μmol/L, MDCK cells in Transwell; mean ± SD of three replicates; negative = promotion; read-out: Transport Inhibition Rate (%) Cl^−
Source text: as §1, §2, §3

[3] = test system: Ca^2+ transport, MDCK cells; assay: In vitro litholytic activity: Ca^2+ transport inhibition, Transwell chamber with MDCK cells; format: cell-based, canine; settings: Canis lupus familiaris, 100 μmol/L, mean ± SD of three replicates, read-out: Transport Inhibition Rate (%) Ca^2+
Description: (§4) On the other hand, all compounds had little inhibitory effect on Ca^2+ transport. The structure–activity relationships (SARs) were also observed. […] On the other hand, the introduction of the benzyl group to the R^1 or R^2 of barbatic acid could not lead to more promising compounds, such as 6a, 6n, 6u, 6b′, and 6i′–p′.
(§5) Logarithmic-phase DMCK cells were inoculated in the upper chamber of a Transwell plate (4 × 10^4 cells/well). Then, 800 µL of complete culture medium was added to the lower chamber, and the cells were incubated for 24 h until they adhered to the wall. The resistance value of the upper chamber cells was measured one by one at 37 °C (R = (Rcell − Rblank) × 0.04π). When the resistance value of the upper chamber cells was ≥300 Ω cm^2, the upper chamber liquid was discarded for drug administration. A control group (given physiological saline) and an experimental group (1, 6a–6p′, 100 μmol/L) were set up, and 100 µL of each drug was administered per well, followed by continued incubation for 24 h. Then, the upper and lower chamber liquids were discarded, and 200 µL of CaC2O4 (30 mmol/L) solution was added to the upper chamber, and 800 µL of PBS solution was added to the lower chamber for continued incubation. At 0.5, 1, 2, and 3 h, 50 µL of the lower chamber liquid was taken and then tested using the Ca^2+ and C2O4^2− detection kits and the following detection methods. The transport inhibition rate (%) = (ODblank − ODexperimental)/ODblank × 100%.

[4] = test system: C2O4^2− transport, MDCK cells; assay: In vitro litholytic activity: C2O4^2− transport inhibition, Transwell chamber with MDCK cells; format: cell-based, canine; settings: for inhibition at 100 µM: Canis lupus familiaris, 100 μmol/L, MDCK cells in Transwell, mean ± SD of three replicates, read-out: Transport Inhibition Rate (%) C2O4^2−
Description: as §4, §5

Structure (SMILES)	inhibition at 100 µM (MDCK cells)	inhibition at 100 µM [1]	inhibition at 100 µM [2]	inhibition at 100 µM [3]	inhibition at 100 µM [4]	melting point	Transport Inhibition Rate (%) Na^+ [1]	Na^+ transport inhibition rate at 1, 2, and 3 h ([1]; evaluated at 1, 2, and 3 h (Figure 3))	C2O4^2− transport inhibition activity at different time periods ([4]; 1, 2, and 3 h (Figure 4))
Cc1cc(OCc2ccccc2)c(C)c(O)c1C(=O)Oc1cc(C)c(C(=O)OCC#N)c(O)c1C [6o′, 4-((cyanomethoxy)carbonyl)-3-hydroxy-2,5-dimethylphenyl 4-(benzyloxy)-2-hydroxy-3,6-dimethylbenzoate]	< 0%	-3.28 ± 0.75%	-24 ± 1.5%	-1.82 ± 0.23%	2.03 ± 1.07%	151 to 155 °C	–	–	–
Cc1cc(OCc2ccccc2)c(C)c(O)c1C(=O)Oc1cc(C)c(C(=O)OCc2ccccc2)c(O)c1C [6p′, benzyl 4-(4-(benzyloxy)-2-hydroxy-3,6-dimethylbenzoyloxy)-2-hydroxy-3,6-dimethylbenzoate]	< 0%	16.3 ± 0.1%	-5.43 ± 0.85%	-3.34 ± 0.26%	7.16 ± 1.56%	153 to 157 °C	–	–	–
COc1cc(C)c(C(=O)Oc2cc(C)c(C(=O)OCc3ccccc3)c(O)c2C)c(O)c1C [Compound 6a, Benzyl 2-hydroxy-4-((2-hydroxy-4-methoxy-3,6-dimethylbenzoyl)oxy)-3,6-dimethylbenzoate]	< 0%	> 30%	8.76 ± 0.25%	-7.98 ± 0.17%	-16.6 ± 0.37%	113 to 115 °C	33.51 ± 5.95%	–	–
COC(=O)c1c(C)cc(OC(=O)c2c(C)cc(OC)c(C)c2O)c(C)c1O [Compound 6b, 3-hydroxy-4-(methoxycarbonyl)-2,5-dimethylphenyl 2-hydroxy-4-methoxy-3,6-dimethylbenzoate]	< 0%	–	5.71%	-5.14 ± 0.31%	-4.25 ± 1.08%	177 to 180 °C	less than 10% and −9.31 ± 7.15%	–	–
CCOC(=O)c1c(C)cc(OC(=O)c2c(C)cc(OC)c(C)c2O)c(C)c1O [Compound 6c, 4-(ethoxycarbonyl)-3-hydroxy-2,5-dimethylphenyl 2-hydroxy-4-methoxy-3,6-dimethylbenzoate]	< 0%	> 30%	-7.56 ± 0.35%	-2.3 ± 0.34%	1.01 ± 2.03%	175 to 178 °C	47.18 ± 0.80%	above 20%	–
CCCOC(=O)c1c(C)cc(OC(=O)c2c(C)cc(OC)c(C)c2O)c(C)c1O [Compound 6d, 3-hydroxy-2,5-dimethyl-4-(propoxycarbonyl)phenyl 2-hydroxy-4-methoxy-3,6-dimethylbenzoate]	3.04 ± 0.3%	8.04 ± 0.4%	-9.21 ± 0.45%	-9.93 ± 0.19%	-6.69 ± 8.67%	146 to 149 °C	–	–	–
COc1cc(C)c(C(=O)Oc2cc(C)c(C(=O)OC(C)C)c(O)c2C)c(O)c1C [Compound 6e, 3-hydroxy-4-(isopropoxycarbonyl)-2,5-dimethylphenyl 2-hydroxy-4-methoxy-3,6-dimethylbenzoate]	< 0%	-0.88 ± 4.35%	-3.13 ± 0.65%	-3.66 ± 0.27%	-2.05 ± 3%	135 to 138 °C	–	–	–
C=CCOC(=O)c1c(C)cc(OC(=O)c2c(C)cc(OC)c(C)c2O)c(C)c1O [Compound 6f, allyl 2-hydroxy-4-(2-hydroxy-4-methoxy-3,6-dimethylbenzoyloxy)-3,6-dimethylbenzoate]	< 0%	-0.5 ± 0.1%	-0.61 ± 0.6%	-3.66 ± 0.25%	6.89 ± 1.5%	155 to 157 °C	–	–	–
COc1cc(C)c(C(=O)Oc2cc(C)c(C(=O)OCC#N)c(O)c2C)c(O)c1C [Compound 6g]	0.12 ± 0.1%	12.1 ± 1.3%	-27.7 ± 1%	-8.61 ± 0.19%	-12.6 ± 2.88%	184 to 187 °C	–	–	–
CCOc1cc(C)c(C(=O)Oc2cc(C)c(C(=O)OC)c(O)c2C)c(O)c1C [Compound 6h, 3-hydroxy-4-(methoxycarbonyl)-2,5-dimethylphenyl 4-ethoxy-2-hydroxy-3,6-dimethylbenzoate]	< 0%	-7.67 ± 1%	2.19 ± 0.55%	-3.85 ± 0.19%	-4.23 ± 4.77%	152 to 155 °C	–	–	–
CCOC(=O)c1c(C)cc(OC(=O)c2c(C)cc(OCC)c(C)c2O)c(C)c1O [Compound 6i, 4-(ethoxycarbonyl)-3-hydroxy-2,5-dimethylphenyl 4-ethoxy-2-hydroxy-3,6-dimethylbenzoate]	< 0%	5.2 ± 3.6%	-2.13 ± 1.9%	1.71 ± 0.13%	54 ± 10.4%	187 to 190 °C	–	–	–
CCCOC(=O)c1c(C)cc(OC(=O)c2c(C)cc(OCC)c(C)c2O)c(C)c1O [Compound 6j, 3-hydroxy-2,5-dimethyl-4-(propoxycarbonyl)phenyl 4-ethoxy-2-hydroxy-3,6-dimethylbenzoate]	< 0%	5.2 ± 3.6%	5.75 ± 1.1%	4.45 ± 0.29%	42.3 ± 1.66%	154 to 157 °C	–	–	very strong and continual inhibitory activities
CCOc1cc(C)c(C(=O)Oc2cc(C)c(C(=O)OC(C)C)c(O)c2C)c(O)c1C [Compound 6k, 3-hydroxy-4-(isopropoxycarbonyl)-2,5-dimethylphenyl 4-ethoxy-2-hydroxy-3,6-dimethylbenzoate]	< 0%	-62.5 ± 1.95%	-7.1 ± 1%	1.2 ± 0.13%	-5.12 ± 1.75%	125 to 128 °C	–	–	–
